# Patent publication US20250367113A1, “DRUG DELIVERY SYSTEM COMPRISING AN ANTI-INFLAMMATORY AGENT OR A SALT THEREOF FOR THE APPLICATION TO ESOPHAGEAL MUCOUS MEMBRANES” (EsoCap AG, priority 2022, published 2025)
# Columns and labels:
# [1] = system: refractory oral graft-versus-host disease; conditions: single case, cited from earlier work
# [2] = system: refractory eosinophilic esophagitis; conditions: systemically administered, small case series; cited from earlier work
# eotaxin-3 secretion = conditions: cells from eosinophilic esophagitis patients; cited from earlier work
# atopic dermatitis = conditions: placebo-controlled phase IIa study; cited from earlier work
# eosinophilic esophagitis = conditions: person, after 3 months of treatment; cited from earlier work
# [3] = UV/Vis spectroscopy of tofacitinib content and spectrum in the polymer film; assay type: physicochemical; conditions: citrate buffer, pH 4.0 with 20% methanol
# Method: Further, the film was analyzed for the content of tofacitinib. To this end, 6 circular samples with a diameter of 1.9 cm (2.84 cm^2) were cut at random positions of the film and analyzed with a UV/Vis spectroscopy in a citrate buffer, pH 4.0 with 20% methanol. The absorption spectrum is shown in FIG. 10 in comparison to a reference sample (tofacitinib solved in citrate buffer, pH 4.0 with 20% methanol).
compound,measurement,setting,value
Cn1cnc([N+](=O)[O-])c1Sc1ncnc2nc[nH]c12 [azathioprine],tolerability,[1]; additional topical administration,well tolerated
same,clinical benefit of additional topical administration,[1]; topically and systemically administered suspension,seemed to add some clinical benefit
same,efficacy in the treatment of refractory eosinophilic esophagitis,[2],efficient
Sc1ncnc2nc[nH]c12 [6-mercaptopurine],efficacy in the treatment of refractory eosinophilic esophagitis,[2],efficient
Cc1oncc1C(=O)Nc1ccc(C(F)(F)F)cc1 [leflunomide],eotaxin-3 secretion by epithelial cells and fibroblasts,eotaxin-3 secretion,block eotaxin-3 secretion
"C[C@@H]1CCN(C(=O)CC#N)C[C@@H]1N(C)c1ncnc2[nH]ccc12 [Tofacitinib, tofacitinib]",results of topical treatment of atopic dermatitis,atopic dermatitis,convincing results
same,appearance of the esophagus,eosinophilic esophagitis,significantly improve the appearance of the esophagus
same,number of eosinophils found in esophageal biopsies,eosinophilic esophagitis,least number of eosinophils found in esophageal biopsies
same,stability of tofacitinib in the film (absorption spectrum versus reference sample),[3],can be stably prepared in a film
NC(=O)c1cnc(NCCc2ccc(O)c(Cl)c2)nc1NCc1ccccc1 [AS1517499],eotaxin-3 secretion by epithelial cells and fibroblasts,eotaxin-3 secretion,block eotaxin-3 secretion
